# Positions count from the first letter of the chain named. Where two headings read alike, the source gives them in different places.
# Key:
# TMPRSS13 = target: T1, TMPRSS13 (Homo sapiens, UniProt Q9BYE2, K566A/R563A/R565A); test: In vitro inhibition assay, recombinant TMPRSS13-AFAAS-6His, Boc-RVRR-AMC; assay type: biochemical; details: dose-response curve, Cheng-Prusoff equation
# T1 construct: Shedding of the TMPRSS13 catalytic domain was detected for both constructs in the cell media; made in house; host or cells: Expi293F cells
# T1 sequence (Q9BYE2 with tags, fused parts or gaps isoform Q9BYE2-6 limits assumed): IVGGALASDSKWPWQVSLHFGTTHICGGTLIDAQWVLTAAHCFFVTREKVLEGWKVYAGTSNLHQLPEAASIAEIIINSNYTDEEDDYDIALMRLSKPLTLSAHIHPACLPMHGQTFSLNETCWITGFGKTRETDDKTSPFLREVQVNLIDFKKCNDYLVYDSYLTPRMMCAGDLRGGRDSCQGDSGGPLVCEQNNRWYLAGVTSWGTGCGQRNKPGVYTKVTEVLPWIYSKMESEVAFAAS
# Procedure: TMPRSS13-AFAAS-6His was expressed via the Expi293 Expression System Kit (Thermo Fisher Scientific, A14635) according to the manufacturer’s instructions and purified via IMAC chromatography. Briefly, Expi293F cells were transfected for 48 h with the TMPRSS13-AFAAS-6His construct, and media containing the shed recombinant protease was injected on a HisTrap Excel column (Cytiva, 17371206) via an ÄKTA Start protein purification system (Cytiva). The bound proteins were then eluted (20 mM sodium phosphate pH 7.4, 500 mM NaCl, and 500 mM imidazole), and the TMPRSS13-containing fractions were dialysed for 16 h at 4 °C in storage buffer (20 mM sodium phosphate pH 7.4, 150 mM NaCl, and 10% glycerol). Proteins were then concentrated via a 10 kDa Amicon Ultra centrifugal filter (Millipore Sigma, UFC8010) and stored at −80 °C.
# (§1) Recombinant TMPRSS13-AFAAS-6His (this study) and matriptase[34] were expressed and purified as described. Recombinant human furin, Factor Xa (R&D Systems) and thrombin (MilliporeSigma) were obtained from commercial sources. Assays were performed in a buffer composed of 50 mM HEPES pH 7.4, 1 mM β-mercaptoethanol, 1 mM CaCl2 and 500 μg/ml BSA for furin and 50 mM HEPES pH 7.4, 150 mM NaCl and 0.1% BSA for other proteases. Assays were performed at room temperature using fluorogenic substrates (Boc-RVRR-AMC for furin and TMPRSS13, Boc-QAR-AMC for other proteases). The enzymatic activity was measured via fluorescence (excitation at 360 nm and emission at 460 nm) at room temperature using an HTX Synergy microplate reader (Agilent). Kis for TMPRSS13 and Factor Xa (FXa) were derived from IC50 dose–response curves using the Cheng-Prusoff equation[35] for reversible competitive inhibitors. For matripase, a plot of the enzyme velocity as a function of the inhibitor concentration was fitted with nonlinear regression analysis via the Morrison Ki equation[36] for competitive tight-binding inhibitors.
# Factor Xa = target: T2, Factor Xa (Homo sapiens, UniProt P00742); test: In vitro inhibition assay, Factor Xa, Boc-QAR-AMC; assay type: biochemical; details: Cheng-Prusoff equation
# T2 construct: purchased R&D Systems
# T2 sequence (P00742 235-488 limits assumed): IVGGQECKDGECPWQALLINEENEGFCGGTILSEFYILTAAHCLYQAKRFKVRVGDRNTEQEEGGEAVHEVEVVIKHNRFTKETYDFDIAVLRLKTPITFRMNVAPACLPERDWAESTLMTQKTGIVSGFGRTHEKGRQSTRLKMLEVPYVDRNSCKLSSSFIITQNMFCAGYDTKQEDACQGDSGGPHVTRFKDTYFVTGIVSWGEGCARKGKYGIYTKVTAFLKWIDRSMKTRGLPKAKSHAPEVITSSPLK
# T2 sequence (P00742 41-179 partner limits assumed): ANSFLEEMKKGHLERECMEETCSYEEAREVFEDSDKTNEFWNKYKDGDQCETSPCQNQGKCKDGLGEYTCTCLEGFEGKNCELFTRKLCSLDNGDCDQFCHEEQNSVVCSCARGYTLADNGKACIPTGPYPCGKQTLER
# Procedure: as §1
# WT TMPRSS13 = target: T3, WT TMPRSS13 (Homo sapiens, UniProt Q9BYE2); test: In cellulo inhibitory activity in TMPRSS13-transfected Vero cells; assay type: cell-based; details: 10 µM compound, 24 h, media, relative to DMSO; for remaining activity at 10 µM: read-out: residual activity of TMPRSS13
# T3 construct: the full length TMPRSS13 (TMPRSS13-WT); expressed in transfected cells; host or cells: Vero C1008 (Vero E6) cells
# T3 sequence (Q9BYE2 326-567 isoform Q9BYE2-6 limits assumed): T1 sequence (Q9BYE2 with tags, fused parts or gaps isoform Q9BYE2-6 limits assumed) with A238R, A240R, A241K
# Procedure: Vero C1008 cells were grown in 12-well plates (200K cells per well) and transfected for 24 h via Lipofectamine 3000 (Life Technologies) with one of the following plasmids: pcDNA3.1 (empty vector, EV), pcDNA3.1-TMPRSS13 WT or pcDNA3.1-TMPRSS13-AFAAS-6His. The cells were then washed 2 times with PBS before HCell-100 medium (Wisent) containing the indicated concentrations of each compound or the control condition (0.01% DMSO) was added. After 24 h of incubation with the compounds, the medium was harvested, and 90 μL was placed in 96-well plate wells with 10 µL of 200 μM Boc-RVRR-AMC. Fluorescence was acquired at room temperature in an FLx800 TBE microplate reader, with excitation at 360 nm and emission at 460 nm. The background was then subtracted by removing the signal recorded with the cells transfected with the empty vector (pcDNA3.1). Proteolytic activity results are represented as a percentage of the DMSO-treated condition. The IC50 was calculated via nonlinear regression of the compound concentration relative to the velocity.
# thrombin = target: T4, thrombin (Homo sapiens, UniProt P00734); test: In vitro inhibition assay, thrombin, Boc-QAR-AMC; assay type: biochemical
# T4 construct: purchased MilliporeSigma
# Procedure: as §1
# furin = target: T5, furin (Homo sapiens, UniProt P09958); test: In vitro inhibition assay, furin, Boc-RVRR-AMC; assay type: biochemical
# T5 construct: purchased R&D Systems
# T5 sequence (P09958 108-794): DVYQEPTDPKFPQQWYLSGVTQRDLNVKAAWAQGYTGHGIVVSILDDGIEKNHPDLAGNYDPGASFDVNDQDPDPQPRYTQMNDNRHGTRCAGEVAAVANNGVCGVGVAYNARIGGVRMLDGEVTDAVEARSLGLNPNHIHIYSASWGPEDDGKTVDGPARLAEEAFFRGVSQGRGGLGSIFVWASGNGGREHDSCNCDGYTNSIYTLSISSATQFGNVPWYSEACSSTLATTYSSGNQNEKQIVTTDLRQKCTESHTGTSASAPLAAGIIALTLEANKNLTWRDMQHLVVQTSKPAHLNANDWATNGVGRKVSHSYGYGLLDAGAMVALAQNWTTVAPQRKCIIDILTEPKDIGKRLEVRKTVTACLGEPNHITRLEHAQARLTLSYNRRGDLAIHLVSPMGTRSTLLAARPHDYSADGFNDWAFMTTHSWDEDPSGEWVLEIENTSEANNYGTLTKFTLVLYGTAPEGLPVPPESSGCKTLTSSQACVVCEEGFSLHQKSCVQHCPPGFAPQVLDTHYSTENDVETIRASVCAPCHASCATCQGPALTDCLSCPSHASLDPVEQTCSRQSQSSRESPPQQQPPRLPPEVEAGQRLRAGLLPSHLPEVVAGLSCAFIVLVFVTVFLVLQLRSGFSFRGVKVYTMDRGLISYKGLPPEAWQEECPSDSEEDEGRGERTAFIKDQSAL
# Procedure: as §1
# matriptase = target: T6, matriptase (Homo sapiens, UniProt Q9Y5Y6); test: In vitro inhibition assay, matriptase, Boc-QAR-AMC; assay type: biochemical; details: Morrison Ki equation, tight-binding
# T6 construct: made in house
# T6 sequence (Q9Y5Y6 1-855): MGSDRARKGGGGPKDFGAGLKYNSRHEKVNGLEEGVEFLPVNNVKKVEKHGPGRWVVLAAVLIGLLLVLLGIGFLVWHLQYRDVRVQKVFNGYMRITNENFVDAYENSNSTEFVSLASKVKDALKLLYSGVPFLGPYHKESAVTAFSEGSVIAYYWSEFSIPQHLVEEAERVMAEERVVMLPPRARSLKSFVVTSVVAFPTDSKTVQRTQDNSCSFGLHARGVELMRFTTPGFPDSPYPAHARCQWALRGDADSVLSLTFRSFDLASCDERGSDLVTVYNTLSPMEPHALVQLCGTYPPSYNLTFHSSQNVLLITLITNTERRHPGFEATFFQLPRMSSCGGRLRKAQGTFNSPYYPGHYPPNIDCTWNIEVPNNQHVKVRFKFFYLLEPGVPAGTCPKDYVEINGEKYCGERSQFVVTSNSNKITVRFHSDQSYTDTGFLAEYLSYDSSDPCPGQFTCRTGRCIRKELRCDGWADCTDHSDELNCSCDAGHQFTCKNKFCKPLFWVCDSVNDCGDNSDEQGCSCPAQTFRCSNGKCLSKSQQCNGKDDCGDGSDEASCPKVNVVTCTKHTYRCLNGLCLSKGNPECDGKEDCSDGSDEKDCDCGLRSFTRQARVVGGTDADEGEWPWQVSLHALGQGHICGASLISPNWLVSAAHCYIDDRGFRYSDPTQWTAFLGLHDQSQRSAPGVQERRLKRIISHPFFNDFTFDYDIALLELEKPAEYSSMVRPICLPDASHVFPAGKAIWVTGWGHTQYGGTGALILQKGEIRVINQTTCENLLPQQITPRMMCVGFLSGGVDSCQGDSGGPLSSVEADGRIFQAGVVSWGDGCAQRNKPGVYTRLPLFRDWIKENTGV
# Procedure: as §1
# human trypsin = test: Proteolysis assay (stability) with human trypsin; assay type: in vitro ADME; details: human trypsin (isolated protease), pH 7.4, compound final conc. 10 µM, 37 °C
# Procedure: For the proteolysis assay, human trypsin (#T6424, Sigma–Aldrich, Saint-Louis, Missouri, USA) was resuspended in 1 mM HCl and 20 mM CaCl2, pH 3, and diluted to a final concentration of 0.1 mg/ml in PBS buffer (pH 7.4, 10 mM PO43-, 150 mM NaCl). The control peptide R8 and the compounds of interest were added to a 96-well plate (37 °C) to a final concentration of 10 µM. Trypsin (0.1 µg/ml) was added to the wells for 0, 0.5, 1, 2, 4 and 6 h. The plate was quenched with AcN/EtOH (1:1) 1% formic acid and 0.25 mM N,N-dimethylbenzamide (IS) and centrifuged at 4 °C.
# in vitro = details: final conc. 0.2 mM, 37 °C
# Excerpt: Adult male Sprague-Dawley rats, weighing between 225 and 300 g (Charles River Laboratories, St. Constant, Canada), were housed in groups of four per double-decker cage on Aspen shavings in a quiet environment. They were maintained under a 12-h light/dark cycle with unrestricted access to food and water. All experimental protocols received approval from the Animal Care Committee of the Université de Sherbrooke, adhering to the Canadian Council on Animal Care guidelines. The procedures also followed the ARRIVE guidelines (Animals in Research: Reporting In Vivo Experiments) and the United States NIH regulations (Ethics approval ID: 2022–3440). To evaluate the stability of compounds in plasma, 6 rats were anaesthetised with 2 L/min oxygen and 5% isoflurane, after which plasma was collected, pooled, and stored frozen until experiments were performed.
# For evaluating plasma stability, rats were anaesthetised using a flow of 2 L/min of oxygen combined with 5% isoflurane. Blood was obtained via cardiac puncture from the left ventricle using a 20 G ½ needle, collected in pre-chilled Vacutainer K2EDTA tubes (367861), and maintained on wet ice. The blood was then centrifuged at 2000 xG for 15 min at 4 °C. Plasma samples were pooled from six rats, aliquoted, and stored at −80 °C. […] To terminate the reaction, 140 μL of a 1:1 acetonitrile-ethanol solution containing 0.25 mM N,N-dimethylbenzamide (used as an internal standard) was added. The resulting mixture was transferred onto an Impact Protein Precipitation filter plate (Phenomenex, California), with a 96-well UPLC plate positioned below to collect the filtrates. Both plates were centrifuged at 500 × g for 10 min at 4 °C. The filtrates were diluted with 30 μL of distilled water before analysis using an Acquity UPLC-MS system class H (column Acquity UPLC protein BEH C18 (2.1 mm × 50 mm), 1.7 μm particles, 130 Å pore size). The peptide’s half-life was determined from the degradation profile utilising the exponential one-phase decay function in GraphPad Prism 9. Mass spectra obtained at time points close to the calculated half-life were compared with those at 0 min (plasma inactivated prior to compound addition) to identify cleavage fragments.
SMILES,Ki (TMPRSS13),also measured
N=C(N)NCCC[C@H](NC(=O)[C@H](Cc1ccc(F)cc1)NC(=O)[C@H](CCC(N)=O)NC(=O)[C@@H](N)CCCNC(=N)N)C(=O)c1nc2ccccc2s1 [Compound N-0136],17.7 nM,
C[C@H](NC(=O)[C@H](CCC(N)=O)NC(=O)[C@@H](N)CCCCNC(=N)N)C(=O)N[C@@H](CCCNC(=N)N)C(=O)c1nc2ccccc2s1 [Compound N-0179],24.8 nM,
N=C(N)NCCCCC(=O)N[C@@H](CCC(N)=O)C(=O)N[C@@H](CC1CCCCC1)C(=O)N[C@@H](CCCNC(=N)N)C(=O)c1nc2ccccc2s1 [Compound N-0678],30 nM,
"C[C@H](NC(=O)CCCCNC(=N)N)C(=O)N[C@@H](Cc1ccccc1)C(=O)N[C@@H](CCCNC(=N)N)C(=O)c1nc2ccccc2s1 [Compound N-0439, (H)-RAFR-Kbt]",35.9 nM,
"N=C(N)NCCC[C@H](NC(=O)[C@H](Cc1ccccc1)NC(=O)CCCC(N)=O)C(=O)c1nc2ccccc2s1 [Compound N-0388, (H)-QFR-Kbt]",1440 nM,Ki (Factor Xa): 1200 ± 167 nM; residual activity of TMPRSS13 (WT TMPRSS13; 10 µM): 92%; remaining activity at 10 µM (WT TMPRSS13; Vero): 72%; Ki (thrombin): > 10000 nM; Ki (furin): > 10000 nM; Ki (matriptase): 24.2 nM
"N=C(N)NCCC[C@H](NC(=O)[C@@H]1CCCN1C(=O)[C@H](CCC(N)=O)NC(=O)[C@@H](N)CCCNC(=N)N)C(=O)c1nc2ccccc2s1 [Compound N-0107, RQPR-kbt]",14.7 nM,
"N=C(N)NCCCCC(=O)N[C@@H](CCC(N)=O)C(=O)N[C@@H](CCc1ccccc1)C(=O)N[C@@H](CCCNC(=N)N)C(O)c1nc2ccccc2s1 (stereo partly drawn) [N-0430(OH), (H)-RQhFR-(OH)bt]",> 10000 nM,
"C[C@H](NC(=O)[C@H](CCC(N)=O)NC(=O)[C@H](CCCNC(=N)N)NC(=O)c1ccccc1)C(=O)N[C@@H](CCCNC(=N)N)C(=O)c1nc2ccccc2s1 [Compound N-0182, PhCO-RQAR-Kbt]",28.5 nM,
N=C(N)NCCC[C@H](NC(=O)[C@H](Cc1ccc(O)cc1)NC(=O)[C@H](CCC(N)=O)NC(=O)[C@@H](N)CCCNC(=N)N)C(=O)c1nc2ccccc2s1 [Compound N-0108],22.3 nM,
C[C@H](NC(=O)[C@H](CCC(N)=O)NC(=O)[C@@H](N)CCCNC(=N)N)C(=O)N[C@@H](CCCNC(=N)N)C(=O)c1nc2ccccc2s1 [Compound N-0100],31.4 nM,
"N=C(N)NCCC[C@H](NC(=O)[C@H](CCc1ccccc1)NC(=O)[C@H](CCC(N)=O)NC(=O)[C@@H](N)CCCNC(=N)N)C(=O)c1nc2ccccc2s1 [Compound N-0159, RQhFR-kbt]",10.3 nM,"half-life at 10 µM (human trypsin): 38.4 h; half-life at 0.2 mM (in vitro; male, Sprague-Dawley, rat, pooled rat plasma (K2EDTA), Mean half-life, Plasma): 9 min; Mean half-life, Plasma (in vitro; rat plasma (male)): 8.97 min; remaining activity at 10 µM (WT TMPRSS13): 37.7%"

# — article PMC11843629, “Development of ketobenzothiazole-based peptidomimetic TMPRSS13 inhibitors with low nanomolar potency” (Journal of Enzyme Inhibition and Medicinal Chemistry, 2025)
